Measurements taken from the supplement of paper PMC11061612.

Columns and labels:
Test in all cases: Bliss excess, mean over the matrix (fraction); higher = more synergy
[1] = tested on: KYSE-70 (Esophageal Squamous Cell Carcinoma)
Method in brief: (§1)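 Cell lines in DMEM/F12 or RPMI with 10% FBS were plated in 1536-well plates, held 24 hours at 37°C, 5% CO2, then given two-drug dose matrices for 72 hours (DMSO typically 0.2%). Viability was read by CellTiter-Glo 2.0 luminescence and scaled as inhibition from 0 (vehicle wells) to 1 (blank wells). Combination Emax is the second-highest inhibition in the matrix; Bliss excess is observed combination effect minus expected EA + EB − EA·EB, EA and EB being single-agent effects.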

[2] = tested on: CML-T1 (Chronic Myelogenous Leukemia)
Method in brief: as §1

[3] = tested on: NCI-H196 (Small Cell Lung Carcinoma)
Method in brief: as §1

[4] = tested on: SJRH30 (Rhabdomyosarcoma)
Method in brief: as §1

[5] = tested on: EB-3 (Burkitt's Lymphoma)
Method in brief: as §1

[6] = tested on: NCI-H1155 (Non-Small Cell Lung Carcinoma)
Method in brief: as §1

[7] = tested on: FLO-1 (Esophageal Adenocarcinoma)
Method in brief: as §1

[8] = tested on: OV-90 (Ovarian Carcinoma)
Method in brief: as §1

[9] = tested on: CHL-1 (Melanoma)
Method in brief: as §1

[10] = tested on: KYM-1 (Rhabdomyosarcoma)
Method in brief: as §1

[11] = tested on: NCI-H1755 (Lung Adenocarcinoma)
Method in brief: as §1

[12] = tested on: NCI-H1623 (Lung Adenocarcinoma)
Method in brief: as §1

[13] = tested on: HSC-3 (Oral Cavity Carcinoma)
Method in brief: as §1

[14] = tested on: RPMI-8866 (Chronic Myelogenous Leukemia)
Method in brief: as §1

[15] = tested on: HuO-3N1 (Osteosarcoma)
Method in brief: as §1

[16] = tested on: JHH-1 (Hepatocellular Carcinoma)
Method in brief: as §1

[17] = tested on: SK-MM-2 (Plasma Cell Myeloma)
Method in brief: as §1

[18] = tested on: RL95-2 (Endometrial Carcinoma)
Method in brief: as §1

[19] = tested on: COLO-684 (Endometrial Carcinoma)
Method in brief: as §1

[20] = tested on: Calu-6 (Non-Small Cell Lung Carcinoma)
Method in brief: as §1

| Compound | Bliss excess [1] | Bliss excess [2] | Bliss excess [3] | Bliss excess [4] | Bliss excess [5] | Bliss excess [6] | Bliss excess [7] | Bliss excess [8] | Bliss excess [9] | Bliss excess [10] | Bliss excess [11] | Bliss excess [12] | Bliss excess [13] | Bliss excess [14] | Bliss excess [15] | Bliss excess [16] | Bliss excess [17] | Bliss excess [18] | Bliss excess [19] | Bliss excess [20] |
| --- | --- | --- | --- | --- | --- | --- | --- | --- | --- | --- | --- | --- | --- | --- | --- | --- | --- | --- | --- | --- |
| C[C@@H]1COCCN1c1cc(C2([S@](C)(=N)=O)CC2)nc(-c2ccnc3[nH]ccc23)n1 [AZD6738] + O=C(c1cc(Cc2n[nH]c(=O)c3ccccc23)ccc1F)N1CCN(C(=O)C2CC2)CC1 [Olaparib] (first compound max 10 µM, 7x7, partner max 10 µM) | 0.021 | -0.0182 | 0.0275 | -0.0205 | -0.0955 | 0.0374 | -0.0348 | 0.0053 | -0.0498 | 0.0088 | -0.0131 | -0.0325 | 0.0043 | -0.0143 | -0.0071 | -0.0206 | -0.0084 | 0.0105 | -0.109 | -0.0679 |
| COc1cccc(OCCCN)c1-c1cc(Nc2cnc(C#N)cn2)n[nH]1 [Prexasertib] + C=CCn1c(=O)c2cnc(Nc3ccc(N4CCN(C)CC4)cc3)nc2n1-c1cccc(C(C)(C)O)n1 [AZD1775] (first compound max 1 µM, partner max 1 µM) | 0.0874 | 0.189 | -0.0317 | 0.108 | 0.0312 | 0.0998 | 0.0488 | -0.0477 | 0.0485 | 0.0713 | -0.0104 | 0.0519 | 0.121 | 0.0591 | 0.122 | 0.0105 | 0.0085 | 0.108 | -0.0042 | -0.0201 |
| Cc1c2c(nn1C)CSCc1cc(n(C)n1)CSc1cc(c3ccccc3c1)OCCCc1c(C(=O)O)n(C)c3c-2c(Cl)ccc13 [AZD5991] + CC1(C)CCC(CN2CCN(c3ccc(C(=O)NS(=O)(=O)c4ccc(NCC5CCOCC5)c([N+](=O)[O-])c4)c(Oc4cnc5[nH]ccc5c4)c3)CC2)=C(c2ccc(Cl)cc2)C1 [Venetoclax] (first compound max 1 µM, 7x7, partner max 1 µM) | -0.0296 | 0.116 | -0.0251 | 0.0289 | -0.0151 | -0.0079 | -0.0597 | -0.0303 | 0.227 | 0.0117 | -0.0422 | 0.0111 | 0.005 | -0.0138 | 0.0087 | 0.128 | 0.0209 | -0.0463 | -0.005 | -0.0014 |
| COc1cc2c(cc1OCCCCCOc1cc3c(cc1OC)C(=O)N1C=C(C)C[C@H]1C=N3)N=C[C@@H]1CC(C)=CN1C2=O [SG3199] + O=C(c1cc(Cc2n[nH]c(=O)c3ccccc23)ccc1F)N1CCN(C(=O)C2CC2)CC1 [Olaparib] (first compound max 0.001 µM, 7x7, partner max 10 µM) | -0.0227 | -0.006 | -0.0387 | 0.0009 | -0.0509 | 0.0119 | -0.0486 | -0.0422 | -0.0227 | -0.0201 | -0.0207 | -0.0342 | -0.0067 | -0.0032 | -0.0446 | -0.0059 | -0.0179 | -0.0383 | -0.0286 | -0.013 |
| Cc1cc2ncnn2cc1Nc1ncc2c(n1)n(C1CCOCC1)c(=O)n2C [AZD7648] + CCN(CCO)CCCOc1ccc2c(Nc3cc(CC(=O)Nc4cccc(F)c4)[nH]n3)ncnc2c1 [AZD2811] (first compound max 10 µM, 7x7, partner max 1 µM) | 0.0476 | 0.069 | -0.0181 | 0.0417 | -0.0338 | 0.0796 | 0.0161 | -0.017 | 0.0203 | 0.0571 | 0.0038 | -0.0311 | 0.0012 | -0.0233 | -0.0184 | -0.0287 | -0.0115 | 0.0646 | 0.0234 | 0.0268 |
| Cn1cnc2c(F)c(Nc3ccc(Br)cc3Cl)c(C(=O)NOCCO)cc21 [Selumetinib] + CC(C)n1c(=O)n(C)c2cnc3cc(F)c(-c4ccc(OCCCN5CCCCC5)nc4)cc3c21 [AZD1390] (first compound max 10 µM, 7x7, partner max 0.3 µM) | -0.0481 | -0.0441 | -0.0561 | -0.031 | -0.0806 | -0.0679 | -0.0276 | 0.0131 | -0.0482 | -0.0207 | 0.0153 | 0.0076 | -0.0424 | -0.0193 | -0.0618 | -0.0268 | -0.0084 | -0.0663 | -0.0257 | -0.0588 |
| CN(C)CCCOc1ccc(-c2ccc3ncc4c(c3c2)n(C2CCOCC2)c(=O)n4C)cn1 [AZD0156] + C[C@@H]1COCCN1C2=NC(=NC(=C2)C3(CC3)[S@](=N)(=O)C)C4=C5C=CNC5=NC=C4 [AZD6738] (first compound max 1 µM, 7x7, partner max 10 µM) | 0.0033 | -0.0095 | -0.0414 | 0.0408 | -0.0035 | -0.0289 | 0.0005 | -0.0323 | 0.0023 | -0.0102 | -0.0249 | -0.0236 | -0.0032 | -0.0014 | -0.0046 | 0.0102 | -0.0524 | -0.0387 | -0.0496 | -0.0139 |
| CC1(C)CCC(CN2CCN(c3ccc(C(=O)NS(=O)(=O)c4ccc(NCC5CCOCC5)c([N+](=O)[O-])c4)c(Oc4cnc5[nH]ccc5c4)c3)CC2)=C(c2ccc(Cl)cc2)C1 [Venetoclax] + C[C@@H](Nc1cc(F)cc(F)c1)c1cc(C(=O)N(C)C)cc2c(=O)cc(N3CCOCC3)oc12 [AZD8186] (first compound max 1 µM, 7x7, partner max 3 µM) | -0.0239 | 0.0023 | -0.03 | -0.0248 | -0.0366 | -0.026 | -0.0712 | -0.0441 | -0.0397 | -0.0138 | 0.0229 | -0.0215 | -0.0286 | 0.0151 | 0.0158 | -0.0413 | 0.024 | -0.0189 | -0.261 | -0.0446 |
| CCN(CCO)CCCOc1ccc2c(Nc3cc(CC(=O)Nc4cccc(F)c4)[nH]n3)ncnc2c1 [AZD2811] + C=CCn1c(=O)c2cnc(Nc3ccc(N4CCN(C)CC4)cc3)nc2n1-c1cccc(C(C)(C)O)n1 [AZD1775] (first compound max 1 µM, partner max 1 µM) | -0.0449 | 0.0392 | -0.0371 | 0.0089 | -0.071 | 0.0451 | -0.0162 | 0.021 | 0.0161 | -0.0096 | -0.0428 | 0.009 | 0.0504 | 0.0714 | -0.0504 | -0.0609 | -0.0005 | 0.0389 | -0.0443 | -0.0028 |
| CCc1c2c(nc3ccc(O)cc13)-c1cc3c(c(=O)n1C2)COC(=O)[C@]3(O)CC [SN-38] + CN(C)CCCOc1ccc(-c2ccc3ncc4c(c3c2)n(C2CCOCC2)c(=O)n4C)cn1 [AZD0156] (first compound max 0.3 µM, 7x7, partner max 1 µM) | 0.0487 | 0.0241 | -0.049 | 0.0722 | -0.0659 | 0.0268 | 0.0218 | -0.012 | 0.0336 | 0.0465 | 0.0829 | -0.0496 | -0.0063 | 0.0969 | -0.0592 | -0.018 | 0.0076 | 0.0502 | -0.0265 | 0.0491 |
| Cc1c2c(nn1C)CSCc1cc(n(C)n1)CSc1cc(c3ccccc3c1)OCCCc1c(C(=O)O)n(C)c3c-2c(Cl)ccc13 [AZD5991] + Cn1cnc2c(F)c(Nc3ccc(Br)cc3Cl)c(C(=O)NOCCO)cc21 [Selumetinib] (first compound max 1 µM, 7x7, partner max 3 µM) | 0.0244 | 0.0516 | -0.0374 | 0.0386 | -0.0424 | 0.0008 | -0.055 | -0.0143 | -0.0031 | 0.0084 | 0.0427 | 0.0184 | 0.0137 | -0.0462 | -0.0008 | 0.0408 | -0.0194 | 0.0336 | -0.0177 | 0.0572 |
| COc1cccc(OCCCN)c1-c1cc(Nc2cnc(C#N)cn2)n[nH]1 [Prexasertib] + Cc1cc2ncnn2cc1Nc1ncc2c(n1)n(C1CCOCC1)c(=O)n2C [AZD7648] (first compound max 1 µM, 7x7, partner max 10 µM) | -0.0383 | -0.0175 | -0.0361 | -0.0311 | -0.0106 | 0.0039 | -0.0817 | 0.0252 | -0.0122 | -0.0078 | -0.0249 | -0.0588 | -0.0096 | 0.0455 | -0.0498 | 0.0093 | -0.0512 | -0.0263 | -0.0547 | -0.0354 |
| COc1nnc2ccc(N3CCC(c4ccc(OCCN5CCN(C)C(=O)[C@H]5C)cc4)CC3)nn12 [AZD5153] + CC1(C)CCC(CN2CCN(c3ccc(C(=O)NS(=O)(=O)c4ccc(NCC5CCOCC5)c([N+](=O)[O-])c4)c(Oc4cnc5[nH]ccc5c4)c3)CC2)=C(c2ccc(Cl)cc2)C1 [Venetoclax] (first compound max 1 µM, 7x7, partner max 1 µM) | -0.0793 | 0.0479 | -0.0351 | -0.0536 | 0.0042 | 0.0223 | -0.005 | -0.085 | -0.0297 | -0.0124 | -0.0416 | -0.0448 | -0.0846 | -0.0979 | -0.0576 | -0.0256 | -0.0111 | -0.0558 | -0.0435 | -0.0949 |
| NC1(C(=O)N[C@@H](CCO)c2ccc(Cl)cc2)CCN(c2ncnc3[nH]ccc23)CC1 [Capivasertib] + COc1nnc2ccc(N3CCC(c4ccc(OCCN5CCN(C)C(=O)[C@H]5C)cc4)CC3)nn12 [AZD5153] (first compound max 10 µM, 7x7, partner max 1 µM) | -0.0109 | -0.0125 | 0.0227 | 0.0117 | -0.0529 | 0.0992 | 0.0115 | 0.0045 | 0.0143 | -0.0306 | -0.0278 | 0.0638 | 0.0078 | -0.0511 | 0.0531 | -0.0072 | -0.107 | -0.002 | -0.0133 | -0.0081 |
